This note sets out measurements from patent US7910579B2, “Benzoxazole derivatives” (Tohoku University, priority 2006, dated 2011).

The test deals with T1, amyloid β protein in the brain section of an Alzheimer disease patient (Homo sapiens, UniProt P05067).
T1 construct: from tissue; host or cells: paraffin-embedded temporal lobe and hippocampus of Alzheimer disease patients
Nature of the test: Staining test on a brain section of an Alzheimer disease patient: amyloid β protein. It is filed as binding. The conditions noted are these: for Binding to (staining of) amyloid β protein in the brain section of an Alzheimer disease patient: 100 μM solution in 50% ethanol, 10 minutes, paraffin brain section; for Specificity to amyloid β: statement in the description of formulae (II) to (VI). The source says:
(1) Brain specimens at the temporal lobe and the hippocampus of patients to which a definitive diagnosis of Alzheimer disease had been given, and those of normal senile persons were used. The specimens were given by our coworker, Fukushimura Hospital, Longevity Medicine Institute, and we were given their consent of use of the specimens for our study purpose by the bereaved of the patients (Fukushimura Hospital Ethical Review Board Approval No. 20).
(2) The paraffin-embedded brain tissue was cut Into slices having a thickness of 6 μm or 8 μm, and extended and dried on a slide. The paraffin brain section was steeped for paraffin removal in xylene twice for 10 minutes, 100% ethanol twice for 5 minutes, 90% ethanol for 5 minutes and running water for 10 minutes in that order.
(3) For pretreatment prior to the staining treatment with a compound of the invention, the sections were steeped for autofluorescence removal with lipofuscin. First, the paraffin-removed sections were dipped in 0.25% KMnO4 solution for 20 minutes. These were washed with PBS, twice for 2 minutes, then dipped in 0.1% K2S2O5/oxalic acid solution for about 5 seconds, and then further washed with PBS, three times for 2 minutes.
(4) About 150 μl of a 100 μM solution of a compound of the invention dissolved in 50% ethanol was dropwise applied to the section and reacted for 10 minutes. After dipped five times in tap water, the section was entrapped with Fluor Save Reagent (Calbiochem), and analyzed through microscopy with a fluorescence microscope (Nikon, Eclipse 80i). The images were taken with a digital camera (Nikon Dxm 1200F or Photometrics' Cool SNAP ES).
(1) After paraffin removal, the sections were washed in distilled water, twice for 2 minutes. Then, using ImmunoPen, the tissue was marked with a surrounding line; about 150 μl of formic acid was dropwise applied to the section and statically left at room temperature for 5 minutes. The section was washed with tap water for 5 minutes, then dipped in cold PBS-Tween 20 for 2 minutes, and thereafter about 150 μl of 0.05% trypsin solution was dropwise applied to it and reacted at 37° C. for 15 minutes.
(2) In an ice bath, this was washed with cold PBS-Tween 20, twice for 5 minutes, and then 2 drops of blocking serum were applied to it and reacted at 37° C. for 30 minutes. Excess water was removed, and then about 150 μl of a specific antibody to amyloid β protein, 6F/3D (by DAKO, 1/50 dilution) was dropwise applied to it, and reacted at 37° C. for 1 hour.
(3) Further, this was washed with cold PBS-Tween 20, 5 times for 2 minutes, and then 2 drops of an anti-mouse IgG (H+L), goat, biotin-binding solution were applied to it and reacted at 37° C. for 1 hour. Then, this was washed with cold PBS-Tween 20, three times for 2 minutes, and 2 drops of an ABC solution (streptoavidin-biotin-peroxidase composite solution) were applied to it, and left statically as such for 30 minutes. Again this was washed with cold PBS-Tween 20, three times for 2 minutes, and then about 150 μl of a DAB solution (10 mg of DAB was dissolved in 20 ml of 0.05 mol/liter tris-HCl buffer, and just before use, 100 μl of 3% hydrogen peroxide water was added to it) was dropwise applied to it for sufficiently staining it. Then, this was washed with distilled water for 1 minute to stop the reaction, then entrapped and observed through microscopy.

Molecules are shown by their SMILES.

T1 sequence (P05067 672-713 limits assumed): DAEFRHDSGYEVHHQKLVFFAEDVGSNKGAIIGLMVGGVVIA

As for `CN(C)c1ccc(/C=C\C=C2C(=O)c3ccccc3C2=O)cc1` [THK-248, 2-[3-(4-dimethylamino-phenyl)-allylidene]-indane-1,3-dione], the “Binding to (staining of) amyloid β protein in the brain section of an Alzheimer disease patient” value (from here on “Binding”) is “bound to the amyloid β protein” and the “Specificity to amyloid β” value is reported as “high specificity to amyloid β”.
In the same order, the values of `CN(C)c1ccc(-c2nnc(-c3sc4cc(Cl)ccc4c3Cl)o2)cc1` [THK-262, [4-[5-(3,6-dichloro-benzo[b]thiophen-2-yl)-[1,3,4]oxadiazol-2-yl]-phenyl]-dimethylamine] are “bound to the amyloid β protein” and “high specificity to amyloid β”.
In the same order, the values of `O=C1Nc2ccc(Cl)cc2/C1=C/c1ccc(N2CCOCC2)cc1` [THK-276, 5-chloro-3-(4-morpholin-4-yl-benzylidene)-1,3-dihydroindol-2-one] are “bound to the amyloid β protein” and “high specificity to amyloid β”.
`O=C1Nc2ccc(Cl)cc2/C1=C/c1ccc(N2CCOCC2)s1` [THK-308, 5-chloro-3-(5-morpholin-4-yl-thiophen-2-ylmethylene)-1,3-dihydroindol-2-one]: the “Binding” value is “bound to the amyloid β protein” and the “Specificity to amyloid β” value is on record as “high specificity to amyloid β”.
In the same order, the values of `c1csc(-c2nnc(-c3ccc(N4CCOCC4)cc3)o2)c1` [THK-383, 4-[4-(5-thiophen-2-yl-[1,3,4]oxadiazol-2-yl)-phenyl]-morpholine] are “bound to the amyloid β protein” and “high specificity to amyloid β”.
For `CN(C)c1ccc(/C=C/C23NC(=O)CN2c2ccc(Br)cc2C3(C)C)cc1` (stereo not shown) [THK-556, 7-bromo-9a-[2-(4-dimethyl-amino-phenyl)-vinyl]-9,9-dimethyl-9,9a-dihydro-1H-imidazo[1,2-a]indol-2-one], the “Binding” value is given as “bound to the amyloid β protein” and the “Specificity to amyloid β” value is listed as “high specificity to amyloid β”.
Turning to `CN(C)c1ccc(/C=C/C23NC(=O)CCN2c2ccc(Br)cc2C3(C)C)cc1` (stereo not shown) [THK-558, 8-bromo-10a-[2-(4-dimethyl-amino-phenyl)-vinyl]-10,10-dimethyl 1-3,4,10,10a-tetrahydro-1H-pyrimido[1,2-a]indol-2-one], the “Binding” value was “bound to the amyloid β protein” and the “Specificity to amyloid β” value is listed as “high specificity to amyloid β”.
Regarding `Cc1ccc2c(c1)C(C)(C)C1(/C=C/C=C/c3ccc(N(C)C)cc3)NC(=O)CCN21` (stereo not shown) [THK-565], the “Binding” value is recorded as “bound to the amyloid β protein” and the “Specificity to amyloid β” value was “high specificity to amyloid β”.
